Reference: BindingDB's records for doi:10.1021/bi00098a028 (Arizona State University, 1991)

Molecular target: T1, Purine nucleoside phosphorylase (Homo sapiens, UniProt P00491)
T1 sequence (P00491 whole entry): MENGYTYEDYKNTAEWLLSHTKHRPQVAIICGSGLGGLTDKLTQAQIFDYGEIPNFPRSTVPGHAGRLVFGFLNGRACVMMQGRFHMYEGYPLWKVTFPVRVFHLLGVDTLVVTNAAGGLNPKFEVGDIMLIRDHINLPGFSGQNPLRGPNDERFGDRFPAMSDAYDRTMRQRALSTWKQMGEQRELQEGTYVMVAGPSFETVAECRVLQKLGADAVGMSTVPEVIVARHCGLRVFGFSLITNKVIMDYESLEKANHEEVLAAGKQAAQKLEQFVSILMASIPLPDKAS
Test: Competitive Inhibition Assay
Excerpt: PNPase activity (guanosine to guanine and ribose 1-phosphate) was followed by measuring the decrease in absorbance at 268nm.

## Nc1cccc2nc[nH]c(=O)c12 [Substituted Quinazolin-4(3H)-one, 9]
  Ki: 337 µM

## O=c1[nH]cnc2c(O)ccc(O)c12 [Substituted Quinazolin-4(3H)-one, 11]
  Ki: 142 µM

## Cc1cc(O)c2nc[nH]c(=O)c2c1 [Substituted Quinazolin-4(3H)-one, 12]
  Ki: 618 µM

## O=c1[nH]cnc2cccc(O)c12 [Substituted Quinazolin-4(3H)-one, 13]
  Ki: 576 µM

## O=c1[nH]cnc2c(O)cccc12 [Substituted Quinazolin-4(3H)-one, 14]
  Ki: 593 µM

## Nc1ccc(O)c2c(=O)[nH]cnc12 [Substituted Quinazolin-4(3H)-one, 15]
  Ki: 131 µM
